Read-outs that look alike come from different tables or passages of the source. Where no end group is shown, it is not given here.
Key:
[1] = test system: adherent peripheral blood cells; experiment: Oxidative burst of adherent peripheral blood cells, change in absorbance of cytochrome c after PMA; type: cell-based
Procedure: FIG. 7. Response of adherent peripheral blood cells to mimetic peptides. Reduction of cytochrome c by superoxide anion radical is indicated by an increase in absorbance (OD), whereas a loss of absorbance indicates destruction of the cytochrome. (A) Total adherent cells from 300 μl of blood were assayed. Samples 1 and 2 contained 5 nM and 2.5 nM branched mimetic peptide, respectively. Samples 3 and 4 contained 5 nM and 2.5 nM linear mimetic peptide, respectively. Sample 5 contained 50 ng/ml lipopolysaccharide (weight equivalent to 6 nM peptide). Sample 6, untreated control cells. (B) Adherent cells were scraped from the surface and 1×10^5 cells were placed in each well. The assay was performed as in (A). Samples 1 and 2 contained 10 nM and 5 nM mimetic peptide, respectively. Samples 3 and 4 contained 10 nM and 5 nM linear peptide, respectively. Sample 5 contained 50 ng/ml lipopolysaccharide. Sample 6, untreated control cells.
(§1) Oxidative burst: Peripheral blood samples were removed from animals and 300 μl added to wells of a 96-well microtiter plate and incubated overnight at 38° C. in a standard CO2-incubator. The nonadherent cells, including erythrocytes, and serum were removed and centrifuged to pellet cells and obtain cell-free serum. RPMI 1640 medium containing 2 to 10% serum from the same animal were added to each well and incubation of the culture is continued for various periods of time. The polypeptide mimetic was then added to a concentration of 1 to 10 nM and incubation continued for 3 h.
One type of assay of cellular activity measures the response of adherent cells to the polypeptide mimetic by the change in absorbance of cytochrome c (Johnston et al., 1978; Pick and Mizel, 1981). Phorbol 12-myristate 13-acetate (PMA) was added to 140 nM and then cytochrome c was added to 15 μM. Change in absorbance was monitored continuously at 550 nm over 20 min. With 300 μl in each well, reduction of cytochrome c was calculated as: Δnanomoles=absorbance at 550 nm×100/2.1 (Pick and Mizel, 1981). Positive control samples were run with lipopolysaccharide, a known stimulator of macrophage activity. Negative controls lack stimulant.
The oxidative burst upon addition of PMA involves production of the superoxide anion radical. The superoxide anion radical is a strong reducing agent and reduces cytochrome c, which is detected by an increase in absorbance of the sample. Additionally, these cells produce the nitric oxide radical, which reacts with superoxide anion radical at diffusion-limited rates to produce the strong oxidant, peroxynitrite anion (Ischiropoulos et al., 1992). These strong oxidants apparently cause loss of absorbance of the cytochrome.
Without treatment with the polypeptide, again no change in absorbance of the cytochrome was detected.

[2] = test system: adherent macrophages or neutrophils from canine peripheral blood; experiment: Phagocytosis of fluorescent polystyrene beads; type: cell-based; settings: 3.4 nM (25 ng/ml)
Procedure: (§2) Phagocytosis: Phagocytosis was measured by the uptake of fluorescently-labeled bacterial cells (Molecular Probes, Inc.) or fluorescent polystyrene beads (Polyscience, Inc). Phagocytosis can be quantitated by quenching extracellular (unphagocytized) bacterial cells by addition of the dye trypan blue to the suspension and measuring the remaining (intracellular) fluorescence (Wan et al., 1993).
Phagocytosis of polystyrene beads: Peripheral blood from the canines was added to confocal dishes and incubated over night to allow macrophage adherence. The cells were washed away with PBS, HBSS, or RPMI. Only adherent macrophages or neutrophils remained on the glass surface and were left to incubate in the above mentioned buffers. Polypeptide was then added at 3.4 nM (25 ng/ml) for a 5-hour incubation. At this point, beads were added for a 10-minute incubation. All incubations were done in 37° C. with 5% CO2.

[3] = test system: peripheral blood adherent cells; experiment: Pyrogallol oxidation initiated by superoxide anion radical from peripheral blood adherent cells; type: cell-based; settings: 3.4, 1.7 or 0.7 nM versus 50 ng/ml lipopolysaccharide, FIG. 8
Procedure: FIG. 8. Assay of pyrogallol oxidation initiated by superoxide anion radical generation by peripheral blood adherent cells treated with stimulants. Samples 1, 2, and 3, contained 3.4, 1.7 or 0.7 nM (25, 12.5 or 5 ng/ml) of the branched mimetic, respectively. Sample 4 contained 50 ng/ml lipopolysaccharide. Sample 5, untreated control cells.
as §1
The response of cells to the polypeptide was also assayed by oxidation of pyrogallol (Marldund and Marklund, 1974) in a reaction initiated by superoxide anion radical (FIG. 8).

[4] = test system: canine peripheral blood macrophages; experiment: Phagocytosis of fluorescently labeled bacterial cells, trypan blue quench, microscopy; type: cell-based; settings: for phagocytosis of bacterial cells: then bacterial cells 10 minutes
Procedure: FIG. 9. Microscopic analysis of phagocytosis of fluorescently labeled bacterial cells by adherent cells from canine peripheral blood samples. […] The sample was treated 15 h with 5 nM branched peptide mimetic and then incubated with fluorescently-labeled bacterial cells for 10 min. Fluorescence of bacterial cells that remained extracellular was quenched with trypan blue. […] The samples were not treated with the peptide mimetic, and most of the cells, as in (D) were not fluorescent. A very low level of fluorescence, evidence of low phagocytic activity, was occasionally seen, as shown in (C). Gain was set to maximize detection of fluorescence. Such control samples show the highest level of phagocytosis of bacterial that we have observed. In many experiments, control cells show no fluorescence.
as §2
In one experiment, canine peripheral blood macrophages were treated for 15 hours with 5 nM branched polypeptide (FIG. 4), and then incubated with bacterial cells for 10 minutes, followed by microscopic analysis. Fluorescence of bacterial cells that remained extracellular was quenched with trypan blue. […] (See FIG. 9)
In another experiment, adherent canine peripheral blood cells were treated for 5 hours with 10 nM branched polypeptide (FIG. 4) and then washed. Fluorescent bacterial cells were added, and after 10 minutes, trypan blue was added to quench extracellular bacterial cells. Cells were examined by light microscopy and then by fluorescent microscopy. Contrast in the fluorescent images was maximized to detect any fluorescence in control samples. […] Treated and control samples were from the same dog.

[5] = test system: recurring, advanced cancer; settings: for quality of life: canine cancer patients, subjective; for tumor load / size of the primary tumor: several patients / some cases
Procedure: Owners of dogs that were used to obtain preliminary data were required to sign informed consent and agreement to necropsy forms. Dogs with histologically or cytologically confirmed cancer were given the polypeptide mimetic at doses of 100 to 1,500µg by weekly perfusion into the blood or subcutaneously 3 times per week. The effective dose of the glycopeptide used by Schneider et al. (2003) was 0.4 ng/g body weight given every other day. On this basis, a minimal weekly dose should be 1.4 ng/g body weight. For a large animal (80 lb or 36 kg dog), the starting, minimal-effective, weekly dose of the synthetic mimetic polypeptide would therefore be 50µg or 6.8 nmoles. For initial studies, the mimetic polypeptide (FIG. 4) was administered at a 20-fold higher dose.

[6] = pH 7.4
Source text: The product was dried and then dissolved in sterile phosphate buffered saline, pH 7.4.

lipopolysaccharide [reference compound]
change in absorbance of cytochrome c ([1]; lipopolysaccharide positive control): increase in absorbance of cytochrome c

[(VQATQSNQHTPRGGGS)2K]2K.beta.AC (not fully specified (C-terminus); printed as [(VQATQSNQHTPRGGGS)2K]2K.beta.AC; also: four-branch lysine core [(seq)2K]2K, betaAla-Cys on core) [branched polypeptide mimetic]
detachment of neutrophils from the surface [2]: induced detachment of neutrophils from the surface
phagocytosis of polystyrene beads ([2]; 5-hour incubation, 10 to 30 minutes after bead addition): presence of the beads within cells
oxidation of pyrogallol, activity as stimulant [3]: most active stimulant
oxidative burst response compared with linear polypeptide ([1]; FIG. 7): stronger response than the linear polypeptide
change in absorbance of cytochrome c ([1]; higher concentrations of polypeptide (5 to 10 nM), FIG. 7A): rapid loss of absorbance
change in absorbance of cytochrome c ([1]; low concentrations of mimetic polypeptide (1 nM), PMA 140 nM, cytochrome c 15 μM, 550 nm): increase in absorbance of cytochrome c
rate of reduction of cytochrome c ([1]; lowered cell number (1×10^5 cells per well), FIG. 7B): correlated with the amount of polypeptide mimetic added
oxidative burst response compared with lipopolysaccharide ([1]; on an equal weight basis): even stronger than to lipopolysaccharide
phagocytosis of bacterial cells ([4]; 5 nM for 15 hours): dramatically increased phagocytosis
attachment of neutrophils ([4]; 10 nM for 5 hours): more of the smaller neutrophils become attached
phagocytosis of bacterial cells ([4]; 10 nM for 5 hours): dramatically increased phagocytosis
quality of life ([5]; listed as branched peptide mimetic): dramatic improvement in quality of life
quality of life ([5]; listed as polypeptide): remarkable extension and improvement in the quality of life
quality of life ([5]; listed as polypeptide mimetic): dramatically enhanced
survival on the treatment ([5]; several animals, advanced cancer): ≥ 6 months
extension of life ([5]; several canine patients with advanced cancer): extension of life beyond what would be normally expected
behavior ([5]; several patients): restored to pre-disease activities
tumor load / size of the primary tumor ([5]; listed as polypeptide): reduction in size of the primary tumor
tumor load / size of the primary tumor ([5]; listed as polypeptide mimetic): reduction in tumor load was detected
stability of the product [6]: at least 3 months
